Measurements published in ChEMBL document CHEMBL3259804, “Syk inhibitors with high potency in presence of blood” (Bioorg Med Chem Lett, 2014).

How the values were obtained:
[1] = target: Tyrosine-protein kinase Lyn (Homo sapiens, UniProt P07948); test: Inhibition of Lyn (unknown origin)
[2] = target: T1, Tyrosine-protein kinase SYK (Homo sapiens, UniProt P43405); test: Inhibition of Syk in anti IgM-stimulated human Ramos cells assessed as BLNK phosphorylation by cellular assay
[3] = target: Tyrosine-protein kinase JAK2 (Homo sapiens, UniProt O60674); test: Inhibition of JAK2 (unknown origin)
Sequence of Tyrosine-protein kinase JAK2 (O60674 whole entry): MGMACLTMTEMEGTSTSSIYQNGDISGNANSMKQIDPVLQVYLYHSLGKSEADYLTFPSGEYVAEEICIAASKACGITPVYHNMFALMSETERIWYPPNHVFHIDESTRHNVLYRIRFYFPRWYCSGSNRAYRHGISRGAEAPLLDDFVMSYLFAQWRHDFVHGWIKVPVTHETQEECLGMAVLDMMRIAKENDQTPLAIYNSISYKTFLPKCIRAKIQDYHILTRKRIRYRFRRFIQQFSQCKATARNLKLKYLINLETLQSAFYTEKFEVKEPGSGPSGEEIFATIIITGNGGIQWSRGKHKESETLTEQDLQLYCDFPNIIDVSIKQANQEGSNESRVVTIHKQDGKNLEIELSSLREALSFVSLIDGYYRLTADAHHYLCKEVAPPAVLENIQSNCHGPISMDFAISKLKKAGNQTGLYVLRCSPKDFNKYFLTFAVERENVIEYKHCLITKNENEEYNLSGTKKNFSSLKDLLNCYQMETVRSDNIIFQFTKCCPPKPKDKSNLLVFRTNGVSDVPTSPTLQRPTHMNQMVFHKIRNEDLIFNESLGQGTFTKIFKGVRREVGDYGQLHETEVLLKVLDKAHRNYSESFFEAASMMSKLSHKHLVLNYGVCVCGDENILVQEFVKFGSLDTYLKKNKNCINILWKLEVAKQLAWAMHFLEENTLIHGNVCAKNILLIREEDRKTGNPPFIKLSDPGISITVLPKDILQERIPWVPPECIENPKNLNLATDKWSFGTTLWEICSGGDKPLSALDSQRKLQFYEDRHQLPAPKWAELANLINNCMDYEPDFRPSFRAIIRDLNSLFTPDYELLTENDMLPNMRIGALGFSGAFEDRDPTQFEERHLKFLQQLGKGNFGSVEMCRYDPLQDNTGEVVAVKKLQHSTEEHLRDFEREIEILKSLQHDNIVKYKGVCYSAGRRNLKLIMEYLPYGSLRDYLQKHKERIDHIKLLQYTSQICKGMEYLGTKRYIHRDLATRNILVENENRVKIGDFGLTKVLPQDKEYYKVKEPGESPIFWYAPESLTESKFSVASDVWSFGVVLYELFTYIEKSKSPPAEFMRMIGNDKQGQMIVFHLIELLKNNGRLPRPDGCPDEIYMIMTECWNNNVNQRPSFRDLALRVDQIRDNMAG

[4] = target: T1, Tyrosine-protein kinase SYK; test: Inhibition of Syk (unknown origin) using 4 uM peptide assessed as product formation after 60 mins incubation by microfluidic mobility shift assay
Bone marrow cell = test: Inhibition of IL3 dependent proliferation in […] mouse bone marrow cells using [3H]thymidine by liquid scintillation counting; format: functional, cell-based
[5] = target: T2, Tyrosine-protein kinase ZAP-70 (Homo sapiens, UniProt P43403); test: Inhibition of ZAP70 (unknown origin)
T2 sequence (P43403 whole entry): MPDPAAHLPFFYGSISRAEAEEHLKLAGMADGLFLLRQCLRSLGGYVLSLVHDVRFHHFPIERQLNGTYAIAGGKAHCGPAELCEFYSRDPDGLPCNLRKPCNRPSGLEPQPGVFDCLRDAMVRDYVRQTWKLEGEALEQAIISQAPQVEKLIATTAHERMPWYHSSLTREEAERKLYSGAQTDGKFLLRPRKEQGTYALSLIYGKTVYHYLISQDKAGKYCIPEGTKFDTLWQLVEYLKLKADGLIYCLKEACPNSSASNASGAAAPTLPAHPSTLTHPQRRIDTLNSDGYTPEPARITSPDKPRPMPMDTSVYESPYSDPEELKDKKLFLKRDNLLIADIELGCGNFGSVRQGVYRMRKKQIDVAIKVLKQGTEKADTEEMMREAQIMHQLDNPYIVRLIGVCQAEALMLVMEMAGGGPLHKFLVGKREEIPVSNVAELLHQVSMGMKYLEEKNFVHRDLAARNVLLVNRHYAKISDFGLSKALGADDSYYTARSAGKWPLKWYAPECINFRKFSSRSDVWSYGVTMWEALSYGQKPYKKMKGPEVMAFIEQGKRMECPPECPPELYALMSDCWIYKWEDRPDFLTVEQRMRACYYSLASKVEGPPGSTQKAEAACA

[6] = target: T1, Tyrosine-protein kinase SYK; test: Inhibition of Syk in human whole blood assessed as inhibition of P-SLP76 in CD14+ monocytes by flow cytometry
[7] = (§1) Half life in rat liver microsomes; format: ADME; conditions: liver microsomes
[8] = Clearance in Wistar rat at 3 mg/kg, iv and 10 mg/kg, po; format: ADME, organism-based; conditions: in vivo
Rattus norvegicus [9] = test: Cmax/dose in Wistar rat at 3 mg/kg, iv and 10 mg/kg, po; format: ADME, organism-based; conditions: in vivo
[10] = Volume of distribution at steady state in Wistar rat at 3 mg/kg, iv and 10 mg/kg, po; format: ADME, organism-based; conditions: in vivo, read-out: Vdss
[11] = Terminal half life Wistar rat at 3 mg/kg, iv and 10 mg/kg, po; format: ADME, organism-based; conditions: in vivo, read-out: beta t1/2 (converted)
Rattus norvegicus [12] = test: Dose normalized AUC in Wistar rat at 10 mg/kg, po; format: ADME, organism-based; design: dose 10 mg/kg, route oral; conditions: in vivo
Rattus norvegicus [13] = test: Dose normalized AUC in Wistar rat at 3 mg/kg, iv; format: ADME, organism-based; design: dose 3 mg/kg, route intravenous; conditions: in vivo
[14] = Plasma bioavailability in Wistar rat at 3 mg/kg, iv and 10 mg/kg, po; format: ADME, organism-based
[15] = target: Voltage-gated inwardly rectifying potassium channel KCNH2 (Homo sapiens, UniProt Q12809); test: Inhibition of human ERG by Q-patch assay
Sequence of Voltage-gated inwardly rectifying potassium channel KCNH2 (Q12809 whole entry): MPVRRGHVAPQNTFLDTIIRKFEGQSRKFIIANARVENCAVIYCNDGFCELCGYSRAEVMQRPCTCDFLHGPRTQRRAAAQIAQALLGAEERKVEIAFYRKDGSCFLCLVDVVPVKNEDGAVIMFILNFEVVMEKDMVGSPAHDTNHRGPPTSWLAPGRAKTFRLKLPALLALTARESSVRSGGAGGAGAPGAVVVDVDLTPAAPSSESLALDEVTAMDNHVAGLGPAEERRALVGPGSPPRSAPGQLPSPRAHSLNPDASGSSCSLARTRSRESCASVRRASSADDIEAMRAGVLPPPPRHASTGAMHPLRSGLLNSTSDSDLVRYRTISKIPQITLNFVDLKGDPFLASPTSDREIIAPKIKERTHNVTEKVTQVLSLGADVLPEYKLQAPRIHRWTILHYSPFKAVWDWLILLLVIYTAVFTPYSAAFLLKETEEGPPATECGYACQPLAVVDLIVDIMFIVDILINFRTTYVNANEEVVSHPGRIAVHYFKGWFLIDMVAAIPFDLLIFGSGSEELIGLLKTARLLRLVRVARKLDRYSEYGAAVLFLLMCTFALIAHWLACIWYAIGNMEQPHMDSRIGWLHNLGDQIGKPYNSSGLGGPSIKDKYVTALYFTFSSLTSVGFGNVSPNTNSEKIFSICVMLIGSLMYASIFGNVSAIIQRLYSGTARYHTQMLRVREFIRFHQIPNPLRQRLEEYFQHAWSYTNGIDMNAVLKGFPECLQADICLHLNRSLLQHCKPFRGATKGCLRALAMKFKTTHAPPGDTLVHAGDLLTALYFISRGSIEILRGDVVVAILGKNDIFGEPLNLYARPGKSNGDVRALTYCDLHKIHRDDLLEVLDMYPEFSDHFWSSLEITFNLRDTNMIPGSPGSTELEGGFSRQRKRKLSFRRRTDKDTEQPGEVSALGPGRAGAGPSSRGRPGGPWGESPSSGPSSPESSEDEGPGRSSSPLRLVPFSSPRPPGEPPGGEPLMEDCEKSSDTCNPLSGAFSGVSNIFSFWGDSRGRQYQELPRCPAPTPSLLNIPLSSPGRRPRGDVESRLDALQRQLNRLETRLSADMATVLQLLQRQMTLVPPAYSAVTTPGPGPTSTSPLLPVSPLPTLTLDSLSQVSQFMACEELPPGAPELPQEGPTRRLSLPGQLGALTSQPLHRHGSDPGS

[16] = target: T3, Receptor-type tyrosine-protein kinase FLT3 (Homo sapiens, UniProt P36888); test: Inhibition of Flt3 (unknown origin)
T3 sequence (P36888 whole entry): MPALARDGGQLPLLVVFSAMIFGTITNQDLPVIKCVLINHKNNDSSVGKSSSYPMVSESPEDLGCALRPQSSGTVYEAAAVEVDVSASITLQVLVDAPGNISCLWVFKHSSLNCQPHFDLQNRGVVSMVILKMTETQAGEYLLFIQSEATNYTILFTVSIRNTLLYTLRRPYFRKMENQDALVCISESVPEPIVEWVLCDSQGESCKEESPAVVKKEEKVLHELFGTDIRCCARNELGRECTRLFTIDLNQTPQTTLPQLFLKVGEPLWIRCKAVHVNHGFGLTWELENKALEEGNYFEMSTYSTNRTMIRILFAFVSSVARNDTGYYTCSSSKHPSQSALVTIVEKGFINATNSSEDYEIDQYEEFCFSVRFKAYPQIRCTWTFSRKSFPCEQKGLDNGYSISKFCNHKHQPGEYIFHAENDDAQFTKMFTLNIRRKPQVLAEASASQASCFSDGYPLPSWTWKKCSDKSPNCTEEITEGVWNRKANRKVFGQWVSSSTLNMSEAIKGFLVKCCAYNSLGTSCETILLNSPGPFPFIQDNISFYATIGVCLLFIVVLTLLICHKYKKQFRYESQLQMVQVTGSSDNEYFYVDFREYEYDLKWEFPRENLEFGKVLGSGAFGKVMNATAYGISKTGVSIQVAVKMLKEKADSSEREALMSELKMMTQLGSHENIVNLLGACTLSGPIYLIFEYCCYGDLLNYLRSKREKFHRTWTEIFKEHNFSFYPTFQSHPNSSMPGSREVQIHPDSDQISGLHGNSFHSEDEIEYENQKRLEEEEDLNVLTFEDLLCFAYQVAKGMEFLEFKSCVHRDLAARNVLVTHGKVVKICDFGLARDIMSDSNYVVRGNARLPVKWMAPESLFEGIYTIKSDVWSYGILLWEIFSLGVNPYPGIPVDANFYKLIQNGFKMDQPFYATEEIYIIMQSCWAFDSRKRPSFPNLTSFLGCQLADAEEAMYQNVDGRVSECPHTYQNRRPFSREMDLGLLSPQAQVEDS

Rattus norvegicus [17] = test: Cmax/dose in Sprague-Dawley rat at 1 mg/kg, iv and 3 mg/kg, po; format: ADME, organism-based; conditions: in vivo
[18] = Plasma bioavailability in Sprague-Dawley rat at 1 mg/kg, iv and 3 mg/kg, po; format: ADME, organism-based
[19] = Volume of distribution at steady state in Sprague-Dawley rat at 1 mg/kg, iv and 3 mg/kg, po; format: ADME, organism-based; conditions: in vivo, read-out: Vdss
[20] = Clearance in Sprague-Dawley rat at 1 mg/kg, iv and 3 mg/kg, po; format: ADME, organism-based; conditions: in vivo
Rattus norvegicus [21] = test: Dose normalized AUC in Sprague-Dawley rat at 1 mg/kg, iv; format: ADME, organism-based; design: dose 1 mg/kg, route intravenous; conditions: in vivo
Rattus norvegicus [22] = test: Dose normalized AUC in Sprague-Dawley rat at 3 mg/kg, po; format: ADME, organism-based; design: dose 3 mg/kg, route oral; conditions: in vivo
[23] = Terminal half life Sprague-Dawley rat at 1 mg/kg, iv and 3 mg/kg, po; format: ADME, organism-based; conditions: in vivo, read-out: beta t1/2 (converted)
[24] = Half life in rat liver S9 fraction assessed as conversion into 5-(1H-indol-7-ylamino)-7-((1R,2S)-2-aminocyclohexylamino)pyrido[4,3-d]pyrimidine-2,4(1H,3H)-dione in presence of NADPH; format: ADME, subcellular
Liver = test: Half life in rat liver S9 fraction assessed as conversion into 5-(1H-indol-7-ylamino)-7-((1R,2S)-2-aminocyclohexylamino)pyrido[4,3-d]pyrimidine-2,4(1H,3H)-dione; format: ADME, subcellular
[25] = Apparent permeability from basolateral to apical side in human Caco2 cells; format: ADME, cell-based; conditions: Caco-2
[26] = Half life in dog liver S9 fraction; format: ADME, subcellular, Canis lupus familiaris
Liver microsome = test: as §1; format: ADME; conditions: microsomes
[27] = Drug metabolism in pig liver microsomes assessed as conversion into 5-(1H-indol-7-ylamino)-7-((1R,2S)-2-aminocyclohexylamino)pyrido[4,3-d]pyrimidine-2,4(1H,3H)-dione by NMR; format: ADME, Sus scrofa
[28] = Apparent permeability from apical to basolateral side in human Caco2 cells; format: ADME, cell-based; conditions: Caco-2

Sequence of Tyrosine-protein kinase Lyn (P07948 whole entry): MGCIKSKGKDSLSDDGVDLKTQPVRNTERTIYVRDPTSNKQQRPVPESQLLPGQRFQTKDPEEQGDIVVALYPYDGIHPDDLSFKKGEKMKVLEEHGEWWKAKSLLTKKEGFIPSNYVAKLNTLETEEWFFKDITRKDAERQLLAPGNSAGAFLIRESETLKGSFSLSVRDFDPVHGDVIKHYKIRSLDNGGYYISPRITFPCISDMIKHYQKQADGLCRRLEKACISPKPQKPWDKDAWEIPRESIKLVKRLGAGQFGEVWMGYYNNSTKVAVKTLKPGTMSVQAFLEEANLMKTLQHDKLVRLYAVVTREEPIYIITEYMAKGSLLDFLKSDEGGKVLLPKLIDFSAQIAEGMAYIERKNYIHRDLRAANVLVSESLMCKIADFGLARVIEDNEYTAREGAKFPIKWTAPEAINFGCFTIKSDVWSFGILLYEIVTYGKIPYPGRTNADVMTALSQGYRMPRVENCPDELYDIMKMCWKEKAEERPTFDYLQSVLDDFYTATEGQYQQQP

Row | Compound | IC50 [1] [nM] | IC50 [2] [nM] | IC50 [3] [nM] | IC50 [4] [nM] | IC50 (Bone marrow cell) [nM] | IC50 [5] [nM] | IC50 [6] [nM] | half-life [7] [min] | other results
1 | C[C@H](N)CNc1cc2nc[nH]c(=O)c2c(Nc2cccc3cc[nH]c23)n1 | 84 | 209 | 980 | 21 | > 10000 | 445 | 1010 | 10 | 
2 | N[C@H]1CCCC[C@H]1Nc1cc2[nH]c(=O)[nH]c(=O)c2c(Nc2cccc3cc[nH]c23)n1 |  |  |  | 1900 |  |  |  |  | 
3 | N[C@H]1COCC[C@H]1Nc1cc2cc[nH]c(=O)c2c(Nc2cccc3cc[nH]c23)n1 | 1200 | 55 | 680 | 22 | 3510 | 340 | 433 | 50 | clearance [8]: 142 mL/min/kg; Cmax/dose (Rattus norvegicus [9]): 2 nM; Vd [10]: 18 L/kg; half-life [11]: 126 min; AUC/dose (Rattus norvegicus [12]): 19 nM·h; AUC/dose (Rattus norvegicus [13]): 299 nM·h; bioavailability [14]: 7%; IC50 [15]: 24900 nM; IC50 [16]: 20 nM
4 | Cc1c[nH]c2c(Nc3nc(N[C@@H]4CCOC[C@@H]4N)cc4nc[nH]c(=O)c34)cccc12 | 69 | 37 | 184 | 1 | 5980 | 47 | 299 | 20 | Cmax/dose (Rattus norvegicus [17]): 2 nM; bioavailability [18]: 2%; Vd [19]: 12 L/kg; clearance [20]: 112 mL/min/kg; IC50 [15]: > 30000 nM; AUC/dose (Rattus norvegicus [21]): 401 nM·h; AUC/dose (Rattus norvegicus [22]): 9 nM·h; half-life [23]: 198 min
5 | Cn1ccc2cccc(Nc3nc(N[C@@H]4CCCC[C@@H]4N)cc4nc[nH]c(=O)c34)c21 | > 10000 | 9270 | > 10000 | 1600 | > 10000 | > 10000 |  | 9 | 
6 | N[C@H]1COCC[C@H]1Nc1cc2nc[nH]c(=O)c2c(Nc2cccc3cc[nH]c23)n1 | 230 | 60 | 290 | 20 | 7470 | 375 | 232 | 14 | 
7 | Cc1c[nH]c2c(Nc3nc(N[C@@H]4CCCC[C@@H]4N)cc4cc[nH]c(=O)c34)cccc12 | 550 | 95 | 300 | 3 | 4940 | 81 | 430 | 27 | 
8 | Cn1cc2c(Nc3nc(N[C@@H]4CCOC[C@@H]4N)cc4cc[nH]c(=O)c34)cccc2n1 | 190 | 78 |  | 1 | 1440 | 18 | 376 | 22 | t1/2 [24]: > 120 min; t1/2 (Liver): > 120 min; IC50 [15]: > 30000 nM
9 | N[C@H]1CCCC[C@H]1Nc1cc2nc[nH]c(=O)c2c(Nc2cccc3cc[nH]c23)n1 |  |  |  |  |  |  |  |  | t1/2 [24]: < 5 min; Cmax/dose (Rattus norvegicus [17]): 1 nM; Papp B→A [25]: 15.2 ×10⁻⁶ cm/s; half-life [26]: > 120 min; bioavailability [18]: 1%; Vd [19]: 31 L/kg; clearance [20]: 69 mL/min/kg; t1/2 (Liver): < 5 min; AUC/dose (Rattus norvegicus [21]): 629 nM·h; AUC/dose (Rattus norvegicus [22]): 9 nM·h; t1/2 (Liver microsome): 22 min; half-life [23]: 660 min; Drug metabolism [27]: metabolite_detected; Papp A→B [28]: 9.5 ×10⁻⁶ cm/s
10 | NC(=O)c1cnc(N[C@@H]2CCCC[C@@H]2N)nc1Nc1cccc(-n2nccn2)c1 |  |  |  |  | 5850 |  |  |  | 
11 | Cc1nc2cc(N[C@@H]3CCCC[C@@H]3N)nc(Nc3cccc4c(C)c[nH]c34)c2c(=O)[nH]1 | > 10000 |  | > 10000 | 480 |  | > 10000 |  | 59 | t1/2 [24]: > 120 min; t1/2 (Liver): > 120 min
12 | N[C@H]1CCCC[C@H]1Nc1cc2cc[nH]c(=O)c2c(Nc2cccc3c(Cl)c[nH]c23)n1 | 1800 | 283 | 1230 | 4 |  | 350 |  | 9 | t1/2 [24]: > 120 min; t1/2 (Liver): > 120 min
13 | N[C@H]1CCCC[C@H]1Nc1cc2nc[nH]c(=O)c2c(Nc2cccc3[nH]ccc23)n1 | 32 | 35 | 83 | 1 | 4140 | 14 | 322 | 17 | 
14 | Cc1c[nH]c2c(Nc3nc(N[C@@H]4CCCC[C@@H]4N)cc4nc[nH]c(=O)c34)cccc12 | 44 | 47 | 190 | 2 | 3800 | 33 | 805 | 25 | Cmax/dose (Rattus norvegicus [17]): 4 nM; Papp B→A [25]: 9.6 ×10⁻⁶ cm/s; bioavailability [18]: 4%; Vd [19]: 19 L/kg; clearance [20]: 39 mL/min/kg; IC50 [15]: > 30000 nM; AUC/dose (Rattus norvegicus [21]): 1109 nM·h; AUC/dose (Rattus norvegicus [22]): 40 nM·h; half-life [23]: 780 min; Papp A→B [28]: 9.5 ×10⁻⁶ cm/s
15 | N[C@H]1CCCC[C@H]1Nc1cc2nc[nH]c(=O)c2c(Nc2cccc(-n3nccn3)c2)n1 |  | 778 |  | 5 | 249 | 74 |  |  | 
16 | COc1cc(Nc2ncc(F)c(Nc3ccc4c(n3)NC(=O)C(C)(C)O4)n2)cc(OC)c1OC [R-406] |  |  |  |  | 147 |  |  |  | 
17 | N[C@H]1CCCC[C@H]1Nc1cc2nc[nH]c(=O)c2c(Nc2cccc3c(Cl)c[nH]c23)n1 | 1000 | 320 | 1810 | 34 | 6660 | 815 |  | 19 | IC50 [15]: 20000 nM
18 | O=c1[nH]cnc2cc(N[C@@H]3CCCNC3)nc(Nc3cccc4cc[nH]c34)c12 | 315 | 378 | 950 | 165 |  | 3000 | 1990 |  | 
